Each molecule was assayed against T1, α-7 nicotinic ACh receptor ion channel expressed in HEK 293 cells (Rattus norvegicus, UniProt Q05941) (assay: Ca2+-sensitive, fluorescence-based assay for α-7 nicotinic acetylcholine receptor channel function in mammalian cells (FLIPR)). Conditions: Table 1, agonist Ca2+ flux, read-out: FLIPR α7 (EC50).
T1 construct: expressed in transfected cells
T1 sequence (Q05941 23-502): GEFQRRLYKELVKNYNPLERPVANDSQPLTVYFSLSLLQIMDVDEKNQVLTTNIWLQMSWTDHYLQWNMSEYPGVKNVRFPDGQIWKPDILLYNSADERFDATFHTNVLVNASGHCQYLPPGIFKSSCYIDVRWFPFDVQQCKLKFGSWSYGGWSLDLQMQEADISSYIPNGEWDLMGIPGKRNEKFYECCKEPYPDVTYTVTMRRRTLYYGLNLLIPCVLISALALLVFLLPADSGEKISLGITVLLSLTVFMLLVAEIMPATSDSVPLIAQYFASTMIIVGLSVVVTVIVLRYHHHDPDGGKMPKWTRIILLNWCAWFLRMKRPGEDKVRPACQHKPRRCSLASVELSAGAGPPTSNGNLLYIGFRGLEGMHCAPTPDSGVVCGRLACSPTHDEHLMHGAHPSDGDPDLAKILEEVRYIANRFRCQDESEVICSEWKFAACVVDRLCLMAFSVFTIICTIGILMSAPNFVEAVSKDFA
Type: cell-based
Protocol: II) A Ca^2+-Sensitive, Fluorescence-Based Assay α-7 for Nicotinic Acetylcholine Receptor Channel Function in Mammalian Cells (“FLIPR”). Summary:
Lead compounds are evaluated for agonist activity at α-7, α3β4, α4αβ2, and α1β1δ1ε sub-types of nicotinic ACh receptor ion channels expressed in mammalian HEK 293 cells. Agonist potency and efficacy values are determined from kinetic fluorescence Ca^2+ influx measurements made using a 384 well FLIPR (Fluorescence Image Plate Reader). The utility of fluorescent indicators for measuring changes in intracellular divalent cation concentrations, particularly Ca^2+, for drug discovery endeavors is well documented (Rudiger, R., et al., Nature Reviews, 2003, 4:579-586; Gonzalez J. E., et al., Receptors and Channels, 2002, 8:283-295). In this assay, channel expressing HEK cell lines seeded in 384 well assay plates are loaded with a membrane permeant fluorescent Ca^2+ indicator dye, whose 510 nm green emission signal increases in response to elevation of intracellular Ca^2+ concentration. The basal fluorescence from the cells is monitored in real time, followed by the acute addition of test compounds. If the compound is an agonist at any of the non-selective cation channels, the latter open and allow the movement of extracellular Ca^2+ ions into the cell cytoplasm, where they bind to the Ca^2+ indicator dye, and produce an increase in fluorescence output signal, which is detected by a cooled CCD imaging camera.
Reagents: The acetomethoxy (AM) ester of the Ca^2+ indicator dye Fluo-4 was obtained from InVitrogen, (Carlsbad, Calif.). Acetylcholine and all buffer constituents were purchased from Sigma Chemical Company, St. Louis, Mo. G418 and Minimal Essential Medium were purchased from InVitrogen Life Technologies, Carlsbad, Calif. Fetal bovine serum was purchased from (InVitrogen, Carlsbad, Calif.).
HEK-293 cells were grown in Minimal Essential Medium containing 10% (v/v) fetal bovine serum at 37° C. in a 5% CO2 incubator. HEK-293 cells stably expressing the ion channels were grown in the same medium with the addition of 500 μg/ml G418.
HEK-293 cells expressing the ion channels of interest were plated in 384 well, black-walled, clear-bottomed, poly-D-lysine coated plates at a density of ˜20,000 cells/well in 20 μl of Minimal Essential Medium containing 10% (v/v) fetal bovine serum and incubated for 2 days at 29° C. in a 5% CO2 incubator. Prior to assay, cells were loaded with the Fluo-4 AM ester. Cell loading was accomplished by removing the culture medium and replacing it with 30 μl/well of the AM ester of the dye (5 μM) mixed with Hanks Balanced Salt Solution (#14175-095) containing 20 mM HEPES, 2.5 mM probenecid, 0.5 mM CaCl2, 1 mM MgCl2 and 10 μM atropine. Dye loading was allowed to proceed for 90 minutes at room temperature at which time the dye loading solution was removed and replaced with 40 μl/well of Hanks buffer. Cells loaded with dye were loaded onto a FLIPR384 (Molecular Devices, Sunnyvale, Calif.). Fluo-4 dye was excited using the 488 nm line of an argon laser. Emission was filtered using a 540+/−30 nm bandpass filter. For evaluation of the effects of test compounds using the Ca^2+ flux assay, compounds to be tested were provided in assay ready plates. For nicotinic receptor ion channel expressing cells, the assay was initiated by the addition of 20 μl/well of Hanks buffer containing test compounds. For all assays, data were collected at 1 Hz for 10 seconds (baseline), at which time the compound containing stimulus buffers are added, and further measurements collected at 0.33 Hz for 3 min.
The statistical robustness of the nicotinic receptor Ca^2+ flux assays is determined from blanks and totals wells. The totals wells define maximal channel activation for each compound test plate (Maximum efficacious dose of acetylcholine), and the blanks wells which contain matched DMSO only, define zero channel activation. […]
O=C(c1cc2ccc(Cl)cc2s1)N1CC2CN3CCC2C1C3 (stereo not drawn) [Example 71] was tested, and the EC50 was over 100 µM. For Cn1nc2ccccc2c1C(=O)N1CC2CN3CCC2C1C3 (stereo not drawn) [Example 54], the EC50 was over 100 µM. With COc1cc(Br)cc2cc(C(=O)N3CC4CN5CCC4C3C5)oc12 (stereo not drawn) [Example 60] the EC50 was over 100 µM. For CC(C)c1cc(C(=O)N2CC3CN4CCC3C2C4)on1 (stereo not drawn) [Example 58], the EC50 was over 100 µM. With O=C(c1sc2cccc(F)c2c1Cl)N1CC2CN3CCC2C1C3 (stereo not drawn) [Example 85] the EC50 was over 100 µM. Molecule O=C(c1snc(Cl)c1Cl)N1CC2CN3CCC2C1C3 (stereo not drawn) [Example 76] has an EC50 of over 100 µM. For O=C(c1cc(-c2ccccc2)cs1)N1CC2CN3CCC2C1C3 (stereo not drawn) [Example 66], the EC50 was over 100 µM. In the case of Cc1ccc2c(Cl)c(C(=O)N3CC4CN5CCC4C3C5)sc2c1 (stereo not drawn) [Example 68], the EC50 is reported as over 100 µM. For O=C(c1cccc(Cl)n1)N1CC2CN3CCC2C1C3 (stereo not drawn) [Example 35], the EC50 was over 100 µM. With CSc1sc(C(=O)N2CC3CN4CCC3C2C4)c2c1C=CCC2 (stereo not drawn) [Example 83] the EC50 was over 100 µM. With O=C(c1cc(-c2ccc(Br)cc2)cs1)N1CC2CN3CCC2C1C3 (stereo not drawn) [Example 69] the EC50 was over 100 µM. O=C(c1cc(Cl)ccn1)N1CC2CN3CCC2C1C3 (stereo not drawn) [Example 37] gave an EC50 of over 100 µM. Work on O=C(c1sc2ccccc2c1Cl)N1CC2CN3CCC2C1C3 (stereo not drawn) [Example 67] yielded an EC50 of over 100 µM. For O=C(c1cc(Br)c(Br)s1)N1CC2CN3CCC2C1C3 (stereo not drawn) [Example 51], the EC50 was over 100 µM. Cc1cc(C(=O)N2CC3CN4CCC3C2C4)on1 (stereo not drawn) [Example 64] was tested, and the EC50 was over 100 µM. O=C(c1sc2cccc(Cl)c2c1Cl)N1CC2CN3CCC2C1C3 (stereo not drawn) [Example 79] showed an EC50 of over 100 µM. O=C(c1cc(Br)cs1)N1CC2CN3CCC2C1C3 (stereo not drawn) [Example 59] showed an EC50 of over 100 µM. O=C(c1n[nH]c2ccccc12)N1CC2CN3CCC2C1C3 (stereo not drawn) [Example 2, (hexahydro-3,6-methanopyrrolo[2,3-c]pyridin-1(2H)-yl)(1H-indazol-3-yl)methanone] was tested, and the EC50 was 0.25 µM. With Cc1cc(C(=O)N2CC3CN4CCC3C2C4)oc1C (stereo not drawn) [Example 70] the EC50 was over 100 µM. Work on Cc1c(Br)csc1C(=O)N1CC2CN3CCC2C1C3 (stereo not drawn) [Example 65] yielded an EC50 of over 100 µM. Molecule O=C(c1cc2nccnc2s1)N1CC2CN3CCC2C1C3 (stereo not drawn) [Example 75] has an EC50 of over 100 µM.

Same assay, conditions: Table 2, agonist Ca2+ flux, read-out: FLIPR α7 (EC50)
O=C(c1cc2ccccc2o1)N1C[C@H]2C[N@]3CC[C@H]2[C@H]1C3 [Example 99, benzofuran-2-yl((3R,3aR,6S,7aS)-hexahydro-3,6-methanopyrrolo[2,3-c]pyridin-1(2H)-yl)methanone] was tested, and the EC50 was 35 µM. COc1cccc2[nH]nc(C(=O)N3C[C@H]4C[N@]5CC[C@H]4[C@H]3C5)c12 [Example 95, ((3R,3aR,6S,7aS)-hexahydro-3,6-methanopyrrolo[2,3-c]pyridin-1(2H)-yl)(4-methoxy-1H-indazol-3-yl)methanone] showed an EC50 of over 100 µM. Work on O=C(c1nsc2ccccc12)N1C[C@H]2C[N@]3CC[C@H]2[C@H]1C3 [Example 97, benzo[d]isothiazol-3-yl((3R,3aR,6S,7aS)-hexahydro-3,6-methanopyrrolo[2,3-c]pyridin-1(2H)-yl)methanone] yielded an EC50 of 30 µM. In the case of O=C(c1n[nH]c2ccc(Cl)cc12)N1C[C@H]2C[N@]3CC[C@H]2[C@H]1C3 [Example 92, ((3R,3aR,6S,7aS)-hexahydro-3,6-methanopyrrolo[2,3-c]pyridin-1(2H)-yl)(5-chloro-1H-indazol-3-yl)methanone], the EC50 is reported as 0.7 µM. In the case of Cn1nc(C(=O)N2C[C@H]3C[N@]4CC[C@H]3[C@H]2C4)c2ccccc21 [Example 90, ((3R,3aR,6S,7aS)-hexahydro-3,6-methanopyrrolo[2,3-c]pyridin-1(2H)-yl) (1-methyl-1H-indazol-3-yl)methanone], the EC50 is reported as over 100 µM. For O=C(c1cc2c(Cl)cccc2s1)N1C[C@H]2C[N@]3CC[C@H]2[C@H]1C3 [Example 94, 4-chlorobenzo[b]thiophen-2-yl((3R,3aR,6S,7aS)-hexahydro-3,6-methanopyrrolo[2,3-c]pyridin-1(2H)-yl)methanone], the EC50 was over 100 µM. In the case of O=C(c1n[nH]c2ccccc12)N1C[C@H]2C[N@]3CC[C@H]2[C@H]1C3 [Example 88, ((3R,3aR,6S,7aS)-hexahydro-3,6-methanopyrrolo[2,3-c]pyridin-1(2H)-yl)(1H-indazol-3-yl)methanone], the EC50 is reported as 0.39 µM.

Same assay, conditions: Table 3, agonist Ca2+ flux, read-out: FLIPR α7 (EC50)
Work on Cn1cc(C(=O)N2C[C@@H]3C[N@@]4CC[C@@H]3[C@@H]2C4)c2ccccc21 [Example 102, ((3S,3aS,6R,7aR)-hexahydro-3,6-methanopyrrolo[2,3-c]pyridin-1(2H)-yl)(1-methyl-1H-indol-3-yl)methanone] yielded an EC50 of over 100 µM. In the case of O=C(c1cc2c(Cl)cccc2s1)N1C[C@@H]2C[N@@]3CC[C@@H]2[C@@H]1C3 [Example 106, 4-chlorobenzo[b]thiophen-2-yl((3S,3aS,6R,7aR)-hexahydro-3,6-methanopyrrolo[2,3-c]pyridin-1(2H)-yl)methanone], the EC50 is reported as over 100 µM. O=C(c1cc2cccc(Cl)c2s1)N1C[C@@H]2C[N@@]3CC[C@@H]2[C@@H]1C3 [Example 108, 7-chlorobenzo[b]thiophen-2-yl((3S,3aS,6R,7aR)-hexahydro-3,6-methanopyrrolo[2,3-c]pyridin-1(2H)-yl)methanone] gave an EC50 of over 100 µM. O=C(c1nsc2ccccc12)N1C[C@@H]2C[N@@]3CC[C@@H]2[C@@H]1C3 [Example 111, benzo[d]isothiazol-3-yl((3S,3aS,6R,7aR)-hexahydro-3,6-methanopyrrolo[2,3-c]pyridin-1(2H)-yl)methanone] was tested, and the EC50 was 36 µM. With O=C(c1n[nH]c2ccc(Br)cc12)N1C[C@@H]2C[N@@]3CC[C@@H]2[C@@H]1C3 [Example 105, ((3S,3aS,6R,7aR)-hexahydro-3,6-methanopyrrolo[2,3-c]pyridin-1(2H)-yl)(5-bromo-1H-indazol-3-yl)methanone] the EC50 was over 100 µM. For COc1cccc2[nH]nc(C(=O)N3C[C@@H]4C[N@@]5CC[C@@H]4[C@@H]3C5)c12 [Example 107, ((3S,3aS,6R,7aR)-hexahydro-3,6-methanopyrrolo[2,3-c]pyridin-1(2H)-yl)(4-methoxy-1H-indazol-3-yl)methanone], the EC50 was 30 µM. For O=C(c1n[nH]c2ccc(Cl)cc12)N1C[C@@H]2C[N@@]3CC[C@@H]2[C@@H]1C3 [Example 103, ((3S,3aS,6R,7aR)-hexahydro-3,6-methanopyrrolo[2,3-c]pyridin-1(2H)-yl)(5-chloro-1H-indazol-3-yl)methanone], the EC50 was over 100 µM. Cn1nc(C(=O)N2C[C@@H]3C[N@@]4CC[C@@H]3[C@@H]2C4)c2ccccc21 [Example 101, ((3S,3aS,6R,7aR)-hexahydro-3,6-methanopyrrolo[2,3-c]pyridin-1(2H)-yl)(1-methyl-1H-indazol-3-yl)methanone] gave an EC50 of over 100 µM. Work on O=C(c1cc2ccccc2s1)N1C[C@@H]2C[N@@]3CC[C@@H]2[C@@H]1C3 [Example 100, benzo[b]thiophen-2-yl((3S,3aS,6R,7aR)-hexahydro-3,6-methanopyrrolo[2,3-c]pyridin-1(2H)-yl)methanone] yielded an EC50 of 11 µM.

Same assay, conditions: Table 4, agonist Ca2+ flux, read-out: FLIPR α7 (EC50)
In the case of O=C(c1n[nH]c2ccccc12)N1CC2CCN3CCC2C1C3 (stereo not drawn) [Example 114, (hexahydro-1H-1,6-methanopyrrolo[3,4-d]azepin-2(7H)-yl)(1H-indazol-3-yl)methanone], the EC50 is reported as 0.47 µM.

Same assay, conditions: Table 5, agonist Ca2+ flux, read-out: FLIPR α7 (EC50)
O=C(c1n[nH]c2ccccc12)N1C2CC3CC1CN(C3)C2 [Example 115, 1,4-diazaadamantan-4-yl(1H-indazol-3-yl)methanone] showed an EC50 of 0.073 µM.

Reference: patent US9708323B2, “Tricyclic compounds as alpha-7 nicotinic acetylcholine receptor ligands” (BRISTOL-MYERS SQUIBB COMPANY, priority 2014, dated 2017)
